{
  "source": "ChEMBL document CHEMBL4428086",
  "about": "“Quassinoids: Viral protein R inhibitors from Picrasma javanica bark collected in Myanmar for HIV infection” (Bioorg Med Chem Lett, 2016)",
  "type_in_all_cases": "cell-based",
  "key": {"[1]": {"test_system": "Human immunodeficiency virus 1", "assay": "Inhibition of c-myc and His6-tagged full length HIV1 NL4-3 Vpr transfected in human TREx-HeLa cells assessed as cell proliferation at 5 uM after 48 hrs in presence of tetracycline by WST-8 assay (reference value: 100 +/- 1%)", "design": "scale not given: the % may be the effect or the level left"}, "[2]": {"test_system": "Human immunodeficiency virus 1", "assay": "Inhibition of c-myc and His6-tagged full length HIV1 NL4-3 Vpr transfected in human TREx-HeLa cells assessed as cell proliferation at 1.25 uM after 48 hrs in presence of tetracycline by WST-8 assay (reference value: 100 +/- 1%)", "design": "scale not given: the % may be the effect or the level left"}, "HeLa": {"test_system": "HeLa", "assay": "Cytotoxicity against human TREx-HeLa cells assessed as cell viability at 2.5 uM after 48 hrs by WST-8 assay"}, "[3]": {"test_system": "Human immunodeficiency virus 1", "assay": "Inhibition of c-myc and His6-tagged full length HIV1 NL4-3 Vpr transfected in human TREx-HeLa cells assessed as cell proliferation at 2.5 uM after 48 hrs in presence of tetracycline by WST-8 assay (reference value: 100 +/- 1%)", "design": "scale not given: the % may be the effect or the level left"}, "[4]": {"test_system": "Human immunodeficiency virus 1", "assay": "Inhibition of c-myc and His6-tagged full length HIV1 NL4-3 Vpr transfected in human TREx-HeLa cells assessed as cell proliferation at 1.25 uM after 48 hrs in presence of tetracycline by WST-8 assay"}},
  "data": [
    {"smiles": "COC1=CC[C@@H]2C[C@H]3OC(=O)C[C@H]4C(C=O)=C(OC)C(=O)[C@H]([C@@]2(C)C1=O)[C@@]34C", "values": [
      {"measurement": "Activity", "setting": "[1]", "result": 152, "unit": "%"},
      {"measurement": "Activity", "setting": "[2]", "result": 131, "unit": "%"},
      {"measurement": "Activity", "setting": "HeLa", "result": "Non-Toxic"},
      {"measurement": "Activity", "setting": "[3]", "result": 153, "unit": "%"}
    ]},
    {"smiles": "COC1=CC[C@@H]2C[C@H]3OC(=O)C=C4C(CO)=C(OC)C(=O)[C@H]([C@@]2(C)C1=O)[C@]43C", "values": [
      {"measurement": "Activity", "setting": "[1]", "result": 141, "unit": "%"},
      {"measurement": "Activity", "setting": "[2]", "result": 132, "unit": "%"},
      {"measurement": "Activity", "setting": "HeLa", "result": "Non-Toxic"},
      {"measurement": "Activity", "setting": "[3]", "result": 140, "unit": "%"}
    ]},
    {"smiles": "COC1=C(C)[C@@H]2CC(=O)O[C@@H]3C[C@H]4CC[C@H](O)C(=O)[C@]4(C)[C@@H](C1=O)[C@@]32C", "values": [
      {"measurement": "Activity", "setting": "[1]", "result": 158, "unit": "%"},
      {"measurement": "Activity", "setting": "[2]", "result": 156, "unit": "%"},
      {"measurement": "Activity", "setting": "HeLa", "result": "Non-Toxic"},
      {"measurement": "Activity", "setting": "[3]", "result": 156, "unit": "%"}
    ]},
    {"smiles": "COC1=C(OC)C(=O)[C@@]2(C)[C@H](C1)C[C@H]1OC(=O)C[C@H]3C(CO)=C(OC)C(=O)[C@H]2[C@@]13C", "values": [
      {"measurement": "Activity", "setting": "[1]", "result": 127, "unit": "%"},
      {"measurement": "Activity", "setting": "[2]", "result": 139, "unit": "%"},
      {"measurement": "Activity", "setting": "HeLa", "result": "Non-Toxic"},
      {"measurement": "Activity", "setting": "[3]", "result": 126, "unit": "%"}
    ]},
    {"smiles": "COC1=C(OC)C(=O)[C@@]2(C)[C@H](C1)C[C@H]1OC(=O)C[C@@]3(O)C(C)=C(OC)C(=O)[C@H]2[C@@]13C", "values": [
      {"measurement": "Activity", "setting": "[1]", "result": 139, "unit": "%"},
      {"measurement": "Activity", "setting": "[2]", "result": 141, "unit": "%"},
      {"measurement": "Activity", "setting": "HeLa", "result": "Non-Toxic"},
      {"measurement": "Activity", "setting": "[3]", "result": 138, "unit": "%"}
    ]},
    {"smiles": "COC1=CC(=O)[C@@H]2C[C@H]3OC(=O)C[C@H]4C(C)=C(OC)C(=O)[C@H]([C@@]2(C)C1=O)[C@@]34C", "values": [
      {"measurement": "Activity", "setting": "[1]", "result": 155, "unit": "%"},
      {"measurement": "Activity", "setting": "[2]", "result": 117, "unit": "%"},
      {"measurement": "Activity", "setting": "HeLa", "result": "Non-Toxic"},
      {"measurement": "Activity", "setting": "[3]", "result": 155, "unit": "%"}
    ]},
    {"smiles": "COC1=CC[C@@H]2C[C@H]3OC(=O)C=C4C(C)=C(OC)C(=O)[C@H]([C@@]2(C)C1=O)[C@]43C", "values": [
      {"measurement": "inhibition", "setting": "[4]", "result": "Dose-dependent effect"},
      {"measurement": "Activity", "setting": "[1]", "result": 216, "unit": "%"},
      {"measurement": "Activity", "setting": "[2]", "result": 175, "unit": "%"},
      {"measurement": "Activity", "setting": "HeLa", "result": "Non-Toxic"},
      {"measurement": "Activity", "setting": "[3]", "result": 214, "unit": "%"}
    ]},
    {"smiles": "COc1c(C=O)c(O)cc2c1C(=O)c1ccccc1C2=O", "note": "[DAMNACANTHAL]", "values": [
      {"measurement": "Activity", "setting": "[1]", "result": 219, "unit": "%"},
      {"measurement": "Activity", "setting": "[2]", "result": 203, "unit": "%"},
      {"measurement": "Activity", "setting": "HeLa", "result": "Non-Toxic"},
      {"measurement": "Activity", "setting": "[3]", "result": 218, "unit": "%"}
    ]},
    {"smiles": "COC1=CC[C@@H]2C[C@H]3OC(=O)C[C@H]4C(CO)=C(OC)C(=O)[C@H]([C@@]2(C)C1=O)[C@@]34C", "values": [
      {"measurement": "Activity", "setting": "[1]", "result": 150, "unit": "%"},
      {"measurement": "Activity", "setting": "[2]", "result": 148, "unit": "%"},
      {"measurement": "Activity", "setting": "HeLa", "result": "Non-Toxic"},
      {"measurement": "Activity", "setting": "[3]", "result": 147, "unit": "%"}
    ]},
    {"smiles": "COC1=C(C)[C@]2(O)CC(=O)O[C@@H]3C[C@H]4CC[C@H](O)C(=O)[C@]4(C)[C@@H](C1=O)[C@@]32C", "values": [
      {"measurement": "Activity", "setting": "[1]", "result": 170, "unit": "%"},
      {"measurement": "Activity", "setting": "[2]", "result": 162, "unit": "%"},
      {"measurement": "Activity", "setting": "HeLa", "result": "Non-Toxic"},
      {"measurement": "Activity", "setting": "[3]", "result": 166, "unit": "%"}
    ]},
    {"smiles": "COC1=CC[C@@H]2C[C@H]3OC(=O)C[C@H]4C(C)=C(OC)C(=O)[C@H]([C@@]2(C)C1=O)[C@@]34C", "values": [
      {"measurement": "Activity", "setting": "[1]", "result": 163, "unit": "%"},
      {"measurement": "Activity", "setting": "[2]", "result": 157, "unit": "%"},
      {"measurement": "Activity", "setting": "HeLa", "result": "Non-Toxic"},
      {"measurement": "Activity", "setting": "[3]", "result": 159, "unit": "%"}
    ]},
    {"smiles": "COC1=C(OC)C(=O)[C@@]2(C)[C@H](C1)C[C@H]1OC(=O)C[C@H]3C(C)=C(OC)C(=O)[C@H]2[C@@]13C", "values": [
      {"measurement": "Activity", "setting": "[1]", "result": 134, "unit": "%"},
      {"measurement": "Activity", "setting": "[2]", "result": 112, "unit": "%"},
      {"measurement": "Activity", "setting": "HeLa", "result": "Non-Toxic"},
      {"measurement": "Activity", "setting": "[3]", "result": 136, "unit": "%"}
    ]},
    {"smiles": "COC1=C(CO)[C@@H]2CC(=O)O[C@@H]3C[C@H]4CC[C@H](O)C(=O)[C@]4(C)[C@@H](C1=O)[C@@]32C", "values": [
      {"measurement": "Activity", "setting": "[1]", "result": 135, "unit": "%"},
      {"measurement": "Activity", "setting": "[2]", "result": 102, "unit": "%"},
      {"measurement": "Activity", "setting": "HeLa", "result": "Non-Toxic"},
      {"measurement": "Activity", "setting": "[3]", "result": 137, "unit": "%"}
    ]},
    {"smiles": "COC1=C[C@@H](O)[C@@H]2C[C@H]3OC(=O)C[C@H]4C(C)=C(OC)C(=O)[C@H]([C@@]2(C)C1=O)[C@@]34C", "values": [
      {"measurement": "Activity", "setting": "[1]", "result": 141, "unit": "%"},
      {"measurement": "Activity", "setting": "[2]", "result": 140, "unit": "%"},
      {"measurement": "Activity", "setting": "HeLa", "result": "Non-Toxic"},
      {"measurement": "Activity", "setting": "[3]", "result": 138, "unit": "%"}
    ]},
    {"smiles": "COC1=C(C)[C@@H]2CC(=O)O[C@@H]3C[C@H]4CC[C@H](OC)C(=O)[C@]4(C)[C@@H](C1=O)[C@@]32C", "values": [
      {"measurement": "Activity", "setting": "[1]", "result": 173, "unit": "%"},
      {"measurement": "Activity", "setting": "[2]", "result": 165, "unit": "%"},
      {"measurement": "Activity", "setting": "HeLa", "result": "Non-Toxic"},
      {"measurement": "Activity", "setting": "[3]", "result": 168, "unit": "%"}
    ]},
    {"smiles": "COC1=CC[C@@H]2C[C@H]3OC(O)C[C@H]4C(C)=C(OC)C(=O)[C@H]([C@@]2(C)C1=O)[C@@]34C", "note": "(stereo not given in full)", "values": [
      {"measurement": "Activity", "setting": "[1]", "result": 178, "unit": "%"},
      {"measurement": "Activity", "setting": "[2]", "result": 170, "unit": "%"},
      {"measurement": "Activity", "setting": "HeLa", "result": "Non-Toxic"},
      {"measurement": "Activity", "setting": "[3]", "result": 174, "unit": "%"}
    ]}
  ]
}
